Source: US6906170B1 (Yeda Research and Development Co. Ltd., priority 1998, dated 2005)
No end group written: not given here.

System: human T cells
Test: T cell chemotaxis through FN-coated polycarbonate membranes
Format: cell-based
Conditions: peptide 1 pg/ml, FN-coated membrane; for inhibition of T cell migration toward IL-2: IL-2 10 U/ml in lower compartment, p<0.01; for inhibition of T cell chemotaxis toward MIP-1β: MIP-1β in lower compartment
Description: T cell migration towards the chemotactic sources was assessed after 2 hr. One experiment representative of four.
Chemotaxis assays. T cell chemotaxis was performed and analyzed as previously described (Ben-Baruch et al., 1997). Briefly, the migration of human T cells (0.5×10^6 cells in adhesion medium/well) was examined in a 48-well chemotaxis micro-chamber (Neuro-Probe Inc., Cabin John, M D). The two compartments of the micro-chambers were separated by a FN-coated polycarbonate filter (5 μm pore size; Osmonics Protein Products, Livemore, Calif.). […] After incubation (120 min, 37° C., in a humidified, 7.5% CO2 atmosphere); the filters were removed, fixed, and stained with a Diff-Quik staining kit Dade, Düdingen, Switzerland). The number of migrating T cells in five high-power fields (under 500× magnification; WILD Microscope, Heerbrugg, Switzerland) was evaluated. For each group, the results are expressed as the mean number of cells in one high-power field.
Immune cell migration is the outcome of a subtle biological equilibrium existing between adhesion and detachment events. Lymphocyte adhesion to the subendothelial ECM and subsequent migration are two active processes that can overlap, but are not mutually dependent events. Adhesion and migration may depend on the ability of the T cells to continuously integrate different pro- and anti-adhesive signals via their versatile receptors for ECM, chemokines, cytokines, and possibly, also antigenic moieties.

Substance | inhibition of T cell migration toward IL-2 | inhibition of T cell chemotaxis toward MIP-1β
Glu-Phe-Leu-Asn-Arg-Trp-Ile-Thr (EFLNRWIT; not fully specified (C-terminus); printed as Glu-Phe-Leu-Asn-Arg-Trp-Ile-Thr) [pep2] | ~60% | only a limited inhibitory effect
Ile-Val-Leu [pep1] | about 30% | 80%
